Laboratory results: ChEMBL document CHEMBL5108060, “Discovery, Characterization, and Structure-Based Optimization of Small-Molecule In Vitro and In Vivo Probes for Human DNA Polymerase Theta” (J Med Chem, 2022)
Values after ≈ are worked out from the molar mass of the structure shown. Active and inactive are the calls of the source. The rule behind the calls is not given here.

Legend:
DNA polymerase theta [1] = biological target: T1, DNA polymerase theta (Homo sapiens, UniProt O75417); assay: Inhibition of recombinant human full length DNA polymerase theta using DNA substrate measured after 1 hrs in presence of dNTPs by plate reader assay
T1 sequence (O75417 whole entry): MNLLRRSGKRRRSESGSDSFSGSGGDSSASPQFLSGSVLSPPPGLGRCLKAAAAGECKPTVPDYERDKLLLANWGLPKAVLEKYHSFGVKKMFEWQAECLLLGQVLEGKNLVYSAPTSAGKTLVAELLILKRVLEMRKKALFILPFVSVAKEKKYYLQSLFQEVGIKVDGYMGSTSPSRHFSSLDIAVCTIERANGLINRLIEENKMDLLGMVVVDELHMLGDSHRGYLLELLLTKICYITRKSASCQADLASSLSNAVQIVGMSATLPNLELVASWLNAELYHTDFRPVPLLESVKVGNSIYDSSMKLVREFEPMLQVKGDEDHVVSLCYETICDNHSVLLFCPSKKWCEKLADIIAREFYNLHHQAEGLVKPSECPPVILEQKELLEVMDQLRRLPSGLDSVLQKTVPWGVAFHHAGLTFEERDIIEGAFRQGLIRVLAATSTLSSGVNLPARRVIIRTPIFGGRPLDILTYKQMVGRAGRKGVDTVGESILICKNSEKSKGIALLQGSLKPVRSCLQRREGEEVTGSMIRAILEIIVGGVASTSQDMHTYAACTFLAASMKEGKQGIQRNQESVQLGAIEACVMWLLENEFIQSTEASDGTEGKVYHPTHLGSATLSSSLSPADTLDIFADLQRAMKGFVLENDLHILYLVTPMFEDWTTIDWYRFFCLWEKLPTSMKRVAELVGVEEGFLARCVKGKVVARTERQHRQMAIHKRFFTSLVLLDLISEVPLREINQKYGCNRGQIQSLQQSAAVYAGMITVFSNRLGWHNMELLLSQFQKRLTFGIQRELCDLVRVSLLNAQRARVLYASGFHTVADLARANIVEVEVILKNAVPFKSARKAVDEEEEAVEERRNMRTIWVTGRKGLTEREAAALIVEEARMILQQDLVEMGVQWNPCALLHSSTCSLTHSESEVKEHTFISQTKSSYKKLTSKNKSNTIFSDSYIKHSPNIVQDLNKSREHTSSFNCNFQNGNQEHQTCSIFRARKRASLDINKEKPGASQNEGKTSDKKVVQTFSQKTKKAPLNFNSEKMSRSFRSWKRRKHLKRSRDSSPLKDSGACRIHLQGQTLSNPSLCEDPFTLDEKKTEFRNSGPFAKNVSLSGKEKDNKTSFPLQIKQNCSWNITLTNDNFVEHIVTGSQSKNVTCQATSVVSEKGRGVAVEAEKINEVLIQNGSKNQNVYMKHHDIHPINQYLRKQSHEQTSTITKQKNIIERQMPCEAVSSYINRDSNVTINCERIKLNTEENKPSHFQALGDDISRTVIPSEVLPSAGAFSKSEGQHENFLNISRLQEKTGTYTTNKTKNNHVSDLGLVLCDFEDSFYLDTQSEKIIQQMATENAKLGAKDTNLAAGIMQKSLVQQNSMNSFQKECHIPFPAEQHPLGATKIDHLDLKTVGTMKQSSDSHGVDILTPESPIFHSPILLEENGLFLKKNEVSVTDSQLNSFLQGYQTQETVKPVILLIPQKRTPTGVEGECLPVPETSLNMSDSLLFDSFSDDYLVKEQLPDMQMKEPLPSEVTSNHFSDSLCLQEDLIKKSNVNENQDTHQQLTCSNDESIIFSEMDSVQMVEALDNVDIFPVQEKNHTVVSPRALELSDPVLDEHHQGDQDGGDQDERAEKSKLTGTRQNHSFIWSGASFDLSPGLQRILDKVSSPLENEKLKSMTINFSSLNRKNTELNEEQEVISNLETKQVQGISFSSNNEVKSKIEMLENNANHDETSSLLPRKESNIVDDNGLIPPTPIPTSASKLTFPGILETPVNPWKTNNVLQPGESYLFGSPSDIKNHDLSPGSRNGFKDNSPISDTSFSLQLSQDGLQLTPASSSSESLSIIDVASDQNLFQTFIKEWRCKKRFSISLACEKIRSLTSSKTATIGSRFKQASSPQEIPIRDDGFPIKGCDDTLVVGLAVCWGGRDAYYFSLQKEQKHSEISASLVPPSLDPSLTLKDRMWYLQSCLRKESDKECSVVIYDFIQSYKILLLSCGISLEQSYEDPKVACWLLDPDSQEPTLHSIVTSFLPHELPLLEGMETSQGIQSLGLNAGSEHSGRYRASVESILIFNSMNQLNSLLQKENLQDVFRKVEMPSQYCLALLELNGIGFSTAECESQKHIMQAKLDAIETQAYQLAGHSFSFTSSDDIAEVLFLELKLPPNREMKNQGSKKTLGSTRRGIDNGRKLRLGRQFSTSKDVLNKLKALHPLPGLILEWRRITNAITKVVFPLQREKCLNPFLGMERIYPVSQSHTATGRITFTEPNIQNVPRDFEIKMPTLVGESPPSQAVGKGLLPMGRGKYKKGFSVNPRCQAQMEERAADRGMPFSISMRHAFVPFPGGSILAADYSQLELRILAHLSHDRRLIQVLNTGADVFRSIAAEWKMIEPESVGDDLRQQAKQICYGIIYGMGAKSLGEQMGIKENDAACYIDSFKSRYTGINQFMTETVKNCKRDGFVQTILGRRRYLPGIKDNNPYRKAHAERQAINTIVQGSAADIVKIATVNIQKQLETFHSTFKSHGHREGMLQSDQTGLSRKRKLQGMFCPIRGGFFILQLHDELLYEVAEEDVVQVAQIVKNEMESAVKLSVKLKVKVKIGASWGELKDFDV

[2] = Metabolic stability in human liver microsomes assessed as intrinsic clearance; format: ADME, Microsome; conditions: read-out: CLH
[3] = Metabolic stability in mouse liver microsomes assessed as intrinsic clearance; format: ADME, Microsome; conditions: read-out: CLH
[4] = Volume of distribution at steady state in mouse at 3 mg/kg, iv; format: ADME, organism-based; conditions: in vivo, read-out: Vdss
[5] = Clearance in rat plasma at 3 mg/kg, iv; format: ADME, organism-based
[6] = Mutagenicity in Salmonella typhimurium LT2 TA100 in presence or absence of S9 fraction by Ames test; format: toxicity; conditions: salmonella enterica subsp. enterica serovar typhimurium
[7] = Free maximum concentration of drug in mouse at 10 mg/kg, po; format: ADME, organism-based; conditions: in vivo
[8] = Lipophilicity, logD of compound; format: physicochemical; conditions: octanol/water
DLD-1 [9] = assay: Antiproliferative activity against human BRCA-2 deficient DLD-1 cells; format: functional, cell-based
[10] = Inhibition of microhomology-mediated end joining in HEK293 cells; format: functional, cell-based, Homo sapiens
[11] = Half life in rat at 3 mg/kg, iv; format: ADME, organism-based; conditions: in vivo
[12] = Half life in mouse at 3 mg/kg, iv; format: ADME, organism-based; conditions: in vivo
[13] = Oral bioavailability in rat at 10 mg/kg; format: ADME, organism-based; conditions: in vivo
[14] = AUCinfinity in rat at 10 mg/kg, po; format: ADME, organism-based; design: time infinity, dose 10 mg/kg, route po; conditions: in vivo
[15] = Oral bioavailability in mouse at 10 mg/kg; format: ADME, organism-based; conditions: in vivo
[16] = In vivo inhibition of DNA polymerase theta in mouse assessed as fold induction of micronuclei in reticulocytes at 150 mg/kg, po BID for 4 days by flow cytometry analysis; format: functional; conditions: time 4 day
[17] = Volume of distribution at steady state in rat at 3 mg/kg, iv; format: ADME, organism-based; conditions: in vivo, read-out: Vdss
[18] = Clearance in mouse plasma at 3 mg/kg, iv; format: ADME, organism-based
[19] = Solubility of the compound; format: physicochemical
DLD-1 [20] = assay: Antiproliferative activity against human DLD-1 cells; format: functional, cell-based
[21] = Metabolic stability in rat liver microsomes assessed as intrinsic clearance; format: ADME, Microsome; conditions: read-out: CLH
[22] = AUCinfinity in mouse at 10 mg/kg, po; format: ADME, organism-based; design: time infinity, dose 10 mg/kg, route po; conditions: in vivo
Breast carcinoma cell = assay: Antitumor activity against BRCA1/SHLD2 knockout rat breast cancer xenograft model assessed as tumor growth inhibition at 100 mg/kg, po qd; format: functional, organism-based
[23] = Clearance in mouse plasma at 0.3 mg/kg, iv; format: ADME, organism-based
[24] = Mutagenicity in Salmonella typhimurium LT2 TA98 in presence or absence of S9 fraction by Ames test; format: toxicity; conditions: salmonella enterica subsp. enterica serovar typhimurium
[25] = Free maximum concentration of drug in rat at 10 mg/kg, po; format: ADME, organism-based; conditions: in vivo
DNA polymerase theta [26] = biological target: T1, DNA polymerase theta; assay: Displacement of tracer from recombinant Tb-labeled DNA polymerase theta (unknown origin) assessed as end point Kd using DNA as substrate preincubated for 30 mins followed by compound addition for 2 hrs by HTRF assay

`Cc1cc(C(F)(F)F)cc(N2C(=O)[C@@H](O)[C@@H](O)[C@H]2C(=O)N(C)c2ccc(F)c(Cl)c2)n1` showed an IC50 (DNA polymerase theta [1]) of 7.6 nM, a microsomal CLint [2] of 30 µL/min/mg and a microsomal CLint [3] of 42 µL/min/mg. The Vd [4] was 2.5 L/kg, the clearance [5] was 35 mL/min/kg and the Activity [6] was “Non-Toxic”. For the same molecule, the fCmax [7] was 405 nM, the logD [8] was 3 and the EC50 (DLD-1 [9]) was 1100 nM. The EC50 [10] was 240 nM, the half-life [11] was 1.3 h and the half-life [12] was 7 h. For the same molecule, the bioavailability [13] was 57%, the AUC(0-inf) [14] was 2750 ng·h/mL and the bioavailability [15] was 80%. For the same molecule, the “fold change (FC)” value [16] was 2, the Vd [17] was 2.9 L/kg and the clearance [18] was 2.8 mL/min/kg. For the same molecule, the solubility [19] was 880 µM (≈ 406 µg/mL), the EC50 (DLD-1 [20]) was greater than 12000 nM and the microsomal CLint [21] was 50 µL/min/mg. The AUC(0-inf) [22] was 54700 ng·h/mL, the Activity (Breast carcinoma cell) was “Active” and the clearance [23] was 16.4 mL/min/kg. The Activity [24] was “Non-Toxic” and the fCmax [25] was 79 nM.
`CCN(C(=O)COc1nc(C)c(Br)c(C(F)(F)F)c1C#N)c1cccc(C)c1` gave an IC50 (DNA polymerase theta [1]) of 400 nM.
For `Cc1cc(C(F)(F)F)cc(N2C(=O)OC[C@H]2C(=O)N(C)c2cccc(Cl)c2)n1`, the microsomal CLint [3] was 410 µL/min/mg.
With `CCN(C(=O)COc1cc(C(F)(F)F)cc(C)n1)c1cccc(C)c1` the IC50 (DNA polymerase theta [1]) was 530 nM.
For `Cc1cccc(N(C)C(=O)[C@@H]2C[C@H](O)CN2c2nccc(C(F)(F)F)c2C#N)c1`, the EC50 (DLD-1 [9]) was 11500 nM, the EC50 [10] was 1030 nM and the EC50 (DLD-1 [20]) was greater than 12000 nM.
`CCN(C(=O)[C@H](C)Nc1nc(C)cc(C(C)C)c1C#N)c1cccc(C)c1` gave an IC50 (DNA polymerase theta [1]) of 49 nM.
`CCN(C(=O)COc1nc(C)cc(C)c1C#N)c1cccc(C)c1` gave an IC50 (DNA polymerase theta [1]) of 4400 nM, an EC50 (DLD-1 [9]) greater than 12000 nM and an EC50 [10] of 1840 nM. For the same molecule, the Kd (DNA polymerase theta [26]) was 820 nM and the EC50 (DLD-1 [20]) was greater than 12000 nM.
`CCN(C(=O)[C@@H]1C[C@H](O)C(=O)N1c1cc(C(F)(F)F)cc(C)n1)c1ccc(F)c(Cl)c1` gave a microsomal CLint [3] of 181 µL/min/mg.
Molecule `Cc1cccc(N(C)C(=O)[C@@H]2C[C@@H](O)CN2c2nc(C)cc(C(F)(F)F)c2C#N)c1` has an EC50 (DLD-1 [9]) of 6000 nM, an EC50 [10] of 315 nM and an EC50 (DLD-1 [20]) greater than 12000 nM.
`Cc1cc(C(F)(F)F)cc(N2C(=O)C[C@@H](O)[C@H]2C(=O)N(C)c2ccc(F)c(Cl)c2)n1` gave an IC50 (DNA polymerase theta [1]) of 5.9 nM, a microsomal CLint [3] of 260 µL/min/mg and an EC50 (DLD-1 [9]) of 2000 nM. It also gave an EC50 [10] of 255 nM and an EC50 (DLD-1 [20]) greater than 12000 nM.
`CCN(C(=O)CNc1nc(C)cc(C)c1C#N)c1cccc(C)c1` gave an IC50 (DNA polymerase theta [1]) of 1800 nM.
With `CCN(C(=O)[C@@H]1COC(=O)N1c1cc(C(F)(F)F)cc(C)n1)c1ccc(F)c(Cl)c1` the microsomal CLint [3] was 260 µL/min/mg and the logD [8] was 4.
With `CCN(C(=O)COc1nc(C)c(Cl)c(C)c1C#N)c1cccc(C)c1` the IC50 (DNA polymerase theta [1]) was 630 nM.
`Cc1cccc(N(C(=O)[C@@H]2CCCN2c2nc(C)cc(C(F)(F)F)c2C#N)C(C)C)c1` showed an IC50 (DNA polymerase theta [1]) of 8.8 nM.
In the case of `CCN(C(=O)COc1cc(C(C)C)cc(C)n1)c1cccc(C)c1`, the IC50 (DNA polymerase theta [1]) is reported as 400 nM.
In the case of `Cc1cc(C(F)(F)F)cc(N2C(=O)OC[C@H]2C(=O)N(C)c2cccc(Cl)c2F)n1`, the microsomal CLint [3] is reported as 165 µL/min/mg.
For `Cc1cc(C(F)(F)F)cc(N2C(=O)[C@@H](O)C[C@H]2C(=O)N(C)c2ccc(F)c(Cl)c2)n1`, the microsomal CLint [2] was 60 µL/min/mg and the microsomal CLint [3] was 96 µL/min/mg.
For `CCN(C(=O)[C@@H]1CCCN1c1nc(C)cc(C)c1C#N)c1cccc(C)c1`, the IC50 (DNA polymerase theta [1]) was 72 nM.
For `CCN(C(=O)[C@@H]1[C@H](O)[C@H](O)C(=O)N1c1cc(C(F)(F)F)cc(C)n1)c1ccc(F)c(Cl)c1`, the microsomal CLint [2] was less than 10 µL/min/mg, the microsomal CLint [3] was 20 µL/min/mg and the EC50 (DLD-1 [9]) was 6900 nM. It also gave an EC50 [10] of 362 nM, an EC50 (DLD-1 [20]) greater than 12000 nM and a microsomal CLint [21] of 30 µL/min/mg.
`Cc1cc(C(F)(F)F)cc(N2C(=O)OC[C@H]2C(=O)N(c2ccc(F)c(Cl)c2)C(C)C)n1` showed a microsomal CLint [3] of 48 µL/min/mg and a logD [8] of 4.4.
For `CCN(C(=O)[C@H](CO)Nc1nc(C)cc(C(F)(F)F)c1C#N)c1cccc(C)c1`, the IC50 (DNA polymerase theta [1]) was 79 nM, the logD [8] was 4 and the EC50 (DLD-1 [9]) was 11000 nM. For the same molecule, the EC50 [10] was 255 nM, the Kd (DNA polymerase theta [26]) was 35 nM and the EC50 (DLD-1 [20]) was greater than 12000 nM.
